Results: ChEMBL document CHEMBL1127874, “Development of tetrazole bioisosteres in angiotensin II antagonists” (Bioorg Med Chem Lett, 1994)

Experiments:
[1] = target: T1, Angiotensin II receptor (AT-1) type-1 (Rattus norvegicus, UniProt P29089+P25095); assay: Binding affinity towards Angiotensin II receptor, type 1 in rat liver membrane using [125I]-angiotensin II (0.1 nM); type: cell membranes
T1 sequence (P29089 whole entry): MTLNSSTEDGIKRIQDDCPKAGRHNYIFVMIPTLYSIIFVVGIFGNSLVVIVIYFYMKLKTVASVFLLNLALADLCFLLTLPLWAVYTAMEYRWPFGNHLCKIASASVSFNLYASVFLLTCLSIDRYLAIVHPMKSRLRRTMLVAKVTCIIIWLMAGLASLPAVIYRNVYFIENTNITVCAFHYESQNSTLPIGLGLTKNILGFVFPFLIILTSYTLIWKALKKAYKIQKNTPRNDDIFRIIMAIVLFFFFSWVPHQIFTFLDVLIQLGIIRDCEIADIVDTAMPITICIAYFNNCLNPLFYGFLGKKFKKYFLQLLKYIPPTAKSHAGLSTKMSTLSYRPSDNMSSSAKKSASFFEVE
T1 sequence (P25095 whole entry): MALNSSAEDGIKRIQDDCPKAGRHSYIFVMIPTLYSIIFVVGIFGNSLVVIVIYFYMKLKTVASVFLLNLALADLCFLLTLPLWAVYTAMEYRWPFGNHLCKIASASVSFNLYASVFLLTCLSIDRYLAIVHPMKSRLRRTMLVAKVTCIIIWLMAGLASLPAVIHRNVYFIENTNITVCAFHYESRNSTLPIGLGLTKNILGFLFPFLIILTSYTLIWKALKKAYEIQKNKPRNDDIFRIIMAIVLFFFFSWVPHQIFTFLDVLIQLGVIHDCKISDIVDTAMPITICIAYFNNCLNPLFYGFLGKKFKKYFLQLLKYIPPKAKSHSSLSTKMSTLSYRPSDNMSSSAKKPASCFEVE

Oryctolagus cuniculus = organism: Oryctolagus cuniculus; assay: Inhibitory activity against contractile response to angiotensin II (10 nM) of rabbit aortic rings; type: functional; settings: Aorta

SMILES | IC50 [1] | IC50 (Oryctolagus cuniculus)
CCCCC1=NC2(CCCC2)C(=O)N1Cc1ccc(-c2ccccc2-c2nnn[nH]2)cc1 [IRBESARTAN] | 1.3 nM | –
CCCCC1=NC2(CCCC2)C(=O)N1Cc1ccc(-c2ccccc2-c2nc(=O)[nH]o2)cc1 | 230 nM | –
CCCCC1=NC2(CCCC2)C(=O)N1Cc1ccc(-c2ccccc2-c2nnc(O)o2)cc1 | 60 nM | 67 nM

Further lines, results first:

IC50 [1] | IC50 (Oryctolagus cuniculus) | SMILES
25 nM | 140 nM | CCCCC1=NC2(CCCC2)C(=O)N1Cc1ccc(-c2ccccc2C2=NOC(=O)C2)cc1
0.7 nM | 0.64 nM | CCCCC1=NC(C)(C2CCCCC2)C(=O)N1Cc1ccc(-c2ccccc2-c2noc(O)n2)cc1 (stereo not drawn)
1.4 nM | 2.8 nM | CCCCC1=NC2(CCCC2)C(=O)N1Cc1ccc(-c2ccccc2-n2oc(=O)[nH]c2=O)cc1
100 nM | – | CCCCC1=NC(C)(C2CCCCC2)C(=O)N1Cc1ccc(-c2ccccc2-c2n[nH]c(O)n2)cc1 (stereo not drawn)
1.7 nM | 2.6 nM | CCCCC1=NC2(CCCC2)C(=O)N1Cc1ccc(-c2ccccc2-c2noc(O)n2)cc1
